Reference: the NIST ThermoML archive (doi:10.1021/je060271a)

Settings: 283.15 K, Liquid, Vibrating tube method

CCCC(=O)OCC(COC(=O)CCC)(COC(=O)CCC)COC(=O)CCC [pentaerythritol tetrabutyrate]
Settings	mass density [kg/m3]
22400 kPa	1071.8
22416 kPa	1071.7
22432 kPa	1071.7
22448 kPa	1071.7
22467 kPa	1071.7
22485 kPa	1071.7
22500 kPa	1071.8
22516 kPa	1071.7
22535 kPa	1071.9
22551 kPa	1072
22567 kPa	1071.8
22586 kPa	1071.9
22602 kPa	1071.9
22618 kPa	1071.8
22634 kPa	1071.9
22654 kPa	1071.9
22670 kPa	1072
22686 kPa	1071.9
22706 kPa	1071.9
22722 kPa	1071.9
22738 kPa	1071.9
22754 kPa	1071.9
22774 kPa	1071.9
22806 kPa	1072
22894 kPa	1072.1
22914 kPa	1072
22930 kPa	1072.1
22946 kPa	1072
22964 kPa	1072.1
22984 kPa	1072
23000 kPa	1072.1
23143 kPa	1072.2
23160 kPa	1072.1
23177 kPa	1072.1
23197 kPa	1072.2
23214 kPa	1072.3
23231 kPa	1072.3
23249 kPa	1072.2
23286 kPa	1072.2
23303 kPa	1072.3
23324 kPa	1072.2
23341 kPa	1072.3
23358 kPa	1072.2
23379 kPa	1072.2
23396 kPa	1072.3
23413 kPa	1072.3
23731 kPa	1072.5
23749 kPa	1072.5
23882 kPa	1072.6
23900 kPa	1072.5
23921 kPa	1072.6
23939 kPa	1072.5
23958 kPa	1072.7
23980 kPa	1072.6
23998 kPa	1072.5
24016 kPa	1072.7
24272 kPa	1072.8
24291 kPa	1072.8
24313 kPa	1072.8
24675 kPa	1073
24694 kPa	1073
24718 kPa	1073
24737 kPa	1073
24756 kPa	1073
24780 kPa	1073
24799 kPa	1073.1
24819 kPa	1073
24842 kPa	1073.1
24862 kPa	1073.1
24882 kPa	1073.1
24902 kPa	1073.1
24926 kPa	1073.1
24945 kPa	1073.1
24969 kPa	1073.2
25008 kPa	1073.3
25032 kPa	1073.1
25052 kPa	1073.1
25072 kPa	1073.2
25092 kPa	1073.2
25112 kPa	1073.3
25136 kPa	1073.2
25157 kPa	1073.1
25182 kPa	1073.3
25201 kPa	1073.3
25225 kPa	1073.2
25246 kPa	1073.2
25266 kPa	1073.3
25287 kPa	1073.3
25311 kPa	1073.3
25332 kPa	1073.3
25353 kPa	1073.3
25378 kPa	1073.3
25399 kPa	1073.4
25420 kPa	1073.3
25441 kPa	1073.3
25465 kPa	1073.5
25486 kPa	1073.3
25598 kPa	1073.4
25620 kPa	1073.5
25641 kPa	1073.6
25666 kPa	1073.5
25688 kPa	1073.6
25710 kPa	1073.5
25731 kPa	1073.6
25757 kPa	1073.5
25778 kPa	1073.5
25799 kPa	1073.5
25820 kPa	1073.5
25846 kPa	1073.6
25867 kPa	1073.5
25889 kPa	1073.7
25915 kPa	1073.5
25936 kPa	1073.6
25958 kPa	1073.7
25985 kPa	1073.7
26009 kPa	1073.6
26031 kPa	1073.7
26052 kPa	1073.7
26074 kPa	1073.8
26101 kPa	1073.8
26122 kPa	1073.6
26148 kPa	1073.8
26170 kPa	1073.8
26193 kPa	1073.7
26219 kPa	1073.8
26241 kPa	1073.8
26264 kPa	1073.8
26290 kPa	1073.8
26313 kPa	1073.8
26334 kPa	1073.8
26361 kPa	1073.8
26384 kPa	1073.9
26406 kPa	1073.8
26429 kPa	1073.8
26456 kPa	1074
26478 kPa	1073.9
26501 kPa	1073.8
26722 kPa	1074
26740 kPa	1074
26772 kPa	1074.1
26796 kPa	1074
26824 kPa	1074.1
26848 kPa	1074.1
26871 kPa	1074.2
26899 kPa	1074.2
26923 kPa	1074
